The test system of the experiment is inflamed rat hind paw. Kind of experiment: Randall-Selitto test in rats (carrageenan-induced acute inflammation, mechanical nociceptive threshold). Conditions: for ED50: Rattus norvegicus, 0.25 h, read-out: ED50 (substance applied alone); for analgesic effect: i.p.; for analgesic effect / timepoint of peak effect: substance applied alone; for timepoint of peak effect: p. appl., timepoint of first measurement.

Structures are written as SMILES. Counter-ions that a name gives are not always drawn. Like-named read-outs stand apart in the source and are kept apart here.

With `CNC1(c2ccccc2Cl)CCCCC1=O` (racemic) [ketamine hydrochloride, (R,S)-ketamine hydrochloride], the analgesic effect result is “dose-dependent analgesic effect” and the “timepoint of peak effect” value is given as 15 min. The ED50 (ip) came to 20.2 mg/kg.
As for `CC[C@@H](c1cccc(O)c1)[C@@H](C)CN(C)C` [tapentadol hydrochloride], the “timepoint of peak effect” value is given as 15 min. For the same compound, the ED50 (iv) stood at 1.75 mg/kg.
Consider `CC12CC3CC(C)(C1)CC(N)(C3)C2` [memantine hydrochloride], for which the analgesic effect entry is on record as “dose-dependent analgesic effect” and the “timepoint of peak effect” value was 15 min. For the same compound, where the note is “ip”, the ED50 was 19.1 mg/kg.

In general, ED50 refers to the dose at which the effect has come halfway, by size or by number of responders.
